According to BindingDB's records for doi:10.1016/j.ejmech.2016.09.095 (Orleans University, 2017):

Tests used:
[1] = target: Alpha-N-acetylglucosaminidase (Homo sapiens) (UniProt P54802); assay: Inhibition of alpha-hexosaminidase in human PBMC using 4-methylumbelliferyl 2-acetamido-2-deoxy-alpha-D-glucopyranoside as substrate at pH 4.3 after 17 hrs by fluorescence assay
[2] = target: Alpha-N-acetylglucosaminidase (Homo sapiens) (UniProt P54802); assay: Inhibition of alpha-hexosaminidase (unknown origin)

Alpha-N-acetylglucosaminidase (Homo sapiens), sequence (P54802 whole entry, looked up): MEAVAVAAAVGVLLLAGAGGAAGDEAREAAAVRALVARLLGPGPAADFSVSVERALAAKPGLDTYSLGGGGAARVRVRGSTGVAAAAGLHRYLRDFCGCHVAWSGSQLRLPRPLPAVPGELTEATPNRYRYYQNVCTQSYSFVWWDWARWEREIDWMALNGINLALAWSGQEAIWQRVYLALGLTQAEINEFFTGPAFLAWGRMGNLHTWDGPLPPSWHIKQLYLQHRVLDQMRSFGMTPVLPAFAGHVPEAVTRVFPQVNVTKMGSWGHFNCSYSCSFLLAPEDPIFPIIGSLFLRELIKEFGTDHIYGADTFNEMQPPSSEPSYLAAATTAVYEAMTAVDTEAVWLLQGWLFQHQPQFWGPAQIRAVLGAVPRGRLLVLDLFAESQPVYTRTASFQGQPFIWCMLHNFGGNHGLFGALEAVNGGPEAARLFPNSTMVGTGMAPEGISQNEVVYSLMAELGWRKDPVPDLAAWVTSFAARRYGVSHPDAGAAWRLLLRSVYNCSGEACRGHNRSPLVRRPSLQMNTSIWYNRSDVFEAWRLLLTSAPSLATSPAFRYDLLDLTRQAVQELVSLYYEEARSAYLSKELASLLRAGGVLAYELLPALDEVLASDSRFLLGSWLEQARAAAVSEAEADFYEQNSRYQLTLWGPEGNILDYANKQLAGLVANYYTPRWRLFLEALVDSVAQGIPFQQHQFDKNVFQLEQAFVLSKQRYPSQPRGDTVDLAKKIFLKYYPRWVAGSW

Row | IC50 [1] | IC50 [2] | Structure (SMILES)
1 | > 160000 nM |  | CCCCC[C@H]1NC[C@@H](O)[C@@H](O)[C@H]1CO
2 |  | 100 nM | CC(=O)N[C@@H]1[C@@H](O)[C@H](O)[C@@H](CO)N[C@@H]1COCCCCc1ccccc1
